The source of these data is US10703746B2, “Mutant IDH1 inhibitors useful for treating cancer” (THE UNITED STATES OF AMERICA, AS REPRESENTED BY THE …, priority 2014, dated 2020).

The target of one assay is IDH1 R132H (Homo sapiens, UniProt O75874, R132H). As to the kind of experiment: IDH1 R132H enzymatic assay (NADPH depletion coupled to diaphorase/resazurin). In kind it is biochemical. To be noted: IDH1 R132H enzymatic inhibition, IC50 class. The method, then: (§1) Assays were conducted in a 1536-well black solid-bottom plate with a final assay volume of 9 μL.
Chain of IDH1 R132H (O75874 whole entry R132H): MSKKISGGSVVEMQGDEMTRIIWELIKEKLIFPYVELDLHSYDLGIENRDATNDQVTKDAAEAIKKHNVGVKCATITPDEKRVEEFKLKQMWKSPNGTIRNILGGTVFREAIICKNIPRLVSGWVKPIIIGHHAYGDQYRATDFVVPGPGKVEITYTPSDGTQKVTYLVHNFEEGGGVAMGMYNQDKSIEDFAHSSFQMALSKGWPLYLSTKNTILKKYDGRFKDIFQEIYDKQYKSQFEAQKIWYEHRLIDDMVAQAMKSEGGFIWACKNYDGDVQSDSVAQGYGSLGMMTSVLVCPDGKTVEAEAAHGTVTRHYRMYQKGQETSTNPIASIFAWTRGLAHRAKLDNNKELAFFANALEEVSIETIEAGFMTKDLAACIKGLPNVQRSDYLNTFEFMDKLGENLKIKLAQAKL
Specifically, for IDH1 R132H, 3 μL of enzyme (4 mM β-ME, 0.0005 mg/mL IDH1 R132H, 150 mM NaCl, 20 mM Tris pH 7.5, 10 mM MgCl2, 0.05% BSA) were added to the plate, followed by the addition of 23 nL of test compound in DMSO. The plate was lidded and incubated at room temperature for 30 minutes at which time 3 μL of substrate were added (0.016 mM NADPH, 2 mM α-KG, 150 mM NaCl, 20 mM Tris pH 7.5, 10 mM MgCl2, 0.05% BSA). This reaction was incubated at room-temperature for 60 minutes at which time the detection mix was added (0.06 mg/mL diaphorase, 0.036 mM resazurin, 150 mM NaCl, 20 mM Tris pH 7.5, 10 mM MgCl2, 0.05% BSA). […]
In general terms: The colour change of resazurin is a common sign of viable cells or microbes.

In the next assay the target is IDH1 R132C (Homo sapiens, UniProt O75874, R132C). Briefly: IDH1 R132C enzymatic assay (NADPH depletion coupled to diaphorase/resazurin). In kind it is biochemical. Conditions: IDH1 R132C enzymatic inhibition, IC50 class. The method, then:
as §1
For IDH1 R132C, 3 μL of enzyme (0.00032 mg/mL IDH1 […], 10% glycerol, 50 mM potassium phosphate pH 6.5, 5 mM MgCl2, 0.03% BSA) were added to the plate, followed by the addition of 23 nL of test compound in DMSO. The plate was lidded and incubated at room temperature for 30 minutes at which time 3 μL of substrate were added (0.012 mM NADPH, 0.6 mM α-KG, 10% glycerol, 50 mM potassium phosphate pH 6.5, 5 mM MgCl2, 0.03% BSA). […]

pIC50: −log10 of the molar value.

Chain of IDH1 R132C (O75874 whole entry R132C): as the sequence (O75874 whole entry R132H) above, with H132C counted along it

Usually pIC50 stands for −log10 of the IC50, conventionally taken in molar units. A lower pIC50 goes with a high IC50. Consider `COc1ccc(OC)c(-n2c3c(cc(-c4cn(-c5ccc(Cl)cc5)cn4)c2=O)C(=O)CC(C)(C)C3)c1` [Compound 65], for which the pIC50 on IDH1 R132H was less than 4.70; against IDH1 R132C, 4.70 to 5.30.

`CCc1cccc(CC)c1-n1c(C)c(C(=O)N2CCCNCC2)cc(-c2nc(-c3ccc(Cl)cc3)cs2)c1=O` [Compound 66]: the pIC50 against IDH1 R132H and at IDH1 R132C was 6.00 to 6.52 throughout.

In the case of `CCc1cccc(CC)c1-n1c(C)c(C(=O)N2CCCCC2C(=O)O)cc(-c2nc(-c3ccc(Cl)cc3)cs2)c1=O` (stereo not drawn) [Compound 67], the pIC50 at IDH1 R132H is 5.30 to 6.00; on IDH1 R132C, 4.70 to 5.30.

For the molecule `COc1ccc(OC)c(-n2c(=O)c(-c3nc(-c4ccc(Cl)cc4)cs3)cc3c(O)cccc32)c1` [Compound 68], the pIC50 at IDH1 R132H and against IDH1 R132C was less than 4.70 in each case.

Regarding `COc1ccc(OC)c(-n2c3c(cc(-c4nc(C5CCCCC5)cs4)c2=O)C(=O)CC(C)(C)C3)c1` [Compound 69], the pIC50 against IDH1 R132H and against IDH1 R132C was 5.30 to 6.00 in each case.

Take `CCc1cccc(CC)c1-n1c(CC(C)C)c(C(=O)N2CCNC(C)(C)C2)cc(-c2nc(-c3ccc(Cl)cc3)cs2)c1=O` [Compound 70]: the negative-log IC50 (pIC50) is 6.00 to 6.52 at IDH1 R132H and greater than 6.52 against IDH1 R132C.

As to `Cc1ccc(-c2csc(-c3cc4c(n(-c5ccccc5C(F)(F)F)c3=O)CC(C)(C)CC4=O)n2)cc1` [Compound 71], the negative-log IC50 (pIC50) at IDH1 R132H and against IDH1 R132C was 6.00 to 6.52 each time.

As for `Cc1cc(-n2c3c(cc(-c4nc(-c5ccc(Cl)cc5)cs4)c2=O)C(=O)CC(C)(C)C3)n(C)n1` [Compound 72], the pIC50 against IDH1 R132H and against IDH1 R132C was 5.30 to 6.00 in each case.

For the molecule `COc1ccc(OC)c(-n2c3c(cc(-c4nc(-c5ccc(Cl)cc5)cs4)c2=O)CCC(C)(C)C3)c1` [Compound 73], the pIC50 against IDH1 R132H and on IDH1 R132C was 5.30 to 6.00 in each case.

As to `CCc1cccc(CC)c1-n1c2c(cc(-c3nc(-c4ccc(Cl)cc4)cs3)c1=O)C(=O)NC2` [Compound 74], the pIC50 against IDH1 R132H is 5.30 to 6.00; at IDH1 R132C it was 4.70 to 5.30.

As to `CCc1cccc(CC)c1-n1c(CC(C)C)c(C(=O)N2CCNCC2C(=O)O)cc(-c2nc(-c3ccc(Cl)cc3)cs2)c1=O` (stereo not drawn) [Compound 75], the pIC50 against IDH1 R132H was 5.30 to 6.00; against IDH1 R132C, 6.00 to 6.52.

Take `CCc1cccc(CC)c1-n1c(CC(C)C)c(C(=O)N2CCNCC2)cc(-c2nc(-c3ccc(C)cc3)c(C)s2)c1=O` [Compound 76]: the pIC50 against IDH1 R132H and on IDH1 R132C was greater than 6.52 each time.

As to `CCc1cccc(CC)c1-n1c(CC(C)C)c(C(=O)NCC(C)(C)O)cc(-c2nc(-c3ccc(Cl)cc3)cs2)c1=O` [Compound 77], the pIC50 against IDH1 R132H was 6.00 to 6.52; against IDH1 R132C it was greater than 6.52.

Consider `COc1ccc(OC)c(-n2cccc(-c3nc(-c4ccc(Cl)cc4)cs3)c2=O)c1` [Compound 78], for which the negative logarithm of the IC50 (pIC50) at IDH1 R132H and on IDH1 R132C was less than 4.70 in each case.

As to `O=c1[nH]cccc1-c1nc(-c2ccc(Cl)cc2)cs1` [Compound 79, 3-(4-(4-chlorophenyl)thiazol-2-yl)pyridin-2(1H)-one], the pIC50 against IDH1 R132H and against IDH1 R132C was less than 4.70 each time.

For the molecule `CCc1cccc(CC)c1-n1c(CC(C)C)c(C(=O)N2CCNC(C)(C(=O)O)C2)cc(-c2nc(-c3ccc(Cl)cc3)cs2)c1=O` (stereo not drawn) [Compound 80], the pIC50 was 6.00 to 6.52 against IDH1 R132H and greater than 6.52 against IDH1 R132C.

For the molecule `CCc1cccc(CC)c1-n1c(CC(C)C)c(C(=O)N2CCNCC2)cc(-c2nc(-c3ccccc3)c(C)s2)c1=O` [Compound 81], the negative-log IC50 (pIC50) at IDH1 R132H is greater than 6.52; against IDH1 R132C it was 6.00 to 6.52.

On to `CCc1cccc(CC)c1-n1c(CC(C)C)c(C(=O)N2CCNCC2)cc(-c2nc(-c3ccc(Cl)cc3)c(C)s2)c1=O` [Compound 82], for which the pIC50 on IDH1 R132H and against IDH1 R132C was greater than 6.52 in each case.

Regarding `CCc1cccc(CC)c1-n1c(C)c(C(=O)N2CCN[C@@H](C(=O)OC)C2)cc(-c2nc(-c3ccc(Cl)cc3)cs2)c1=O` [Compound 83], the pIC50 at IDH1 R132H is 5.30 to 6.00; on IDH1 R132C it was 6.00 to 6.52.

Regarding `CCc1cccc(CC)c1-n1c(C(C)C)c(C(=O)N2CCNC(CO)C2)cc(-c2nc(-c3ccc(Cl)cc3)cs2)c1=O` (stereo not drawn) [Compound 84], the pIC50 is 6.00 to 6.52 at IDH1 R132H and greater than 6.52 at IDH1 R132C.

Consider `CC1(C)CC(=O)c2cc(-c3nc(-c4ccc(C(F)(F)F)cc4)cs3)c(=O)n(-c3ccccc3C(F)(F)F)c2C1` [Compound 85], for which the pIC50 against IDH1 R132H and on IDH1 R132C was 6.00 to 6.52 throughout.

Consider `CCc1cccc(CC)c1-n1c(C(C)C)c(C(=O)N2CCNCC2)cc(-c2nc(-c3ccc(Cl)cc3)cs2)c1=O` [Compound 86], for which the pIC50 on IDH1 R132H was 6.00 to 6.52; at IDH1 R132C, greater than 6.52.

Regarding `CCc1cccc(CC)c1-n1c(CC(C)C)c(C(=O)N2CCNCC2)cc(-c2nc(-c3ccc(C(=O)N4CCOCC4)cc3)c(C)s2)c1=O` [Compound 87], the pIC50 on IDH1 R132H and on IDH1 R132C was 4.70 to 5.30 each time.

`CCc1cccc(CC)c1-n1c(C(C)C)c(C(=O)N2CCNC(C(=O)O)C2)cc(-c2nc(-c3ccc(Cl)cc3)cs2)c1=O` (stereo not drawn) [Compound 88]: the pIC50 against IDH1 R132H and at IDH1 R132C was greater than 6.52 throughout.

With `CCc1cccc(CC)c1-n1c(CC(C)C)c(C(=O)N2CCC(CO)C2)cc(-c2nc(-c3ccc(Cl)cc3)cs2)c1=O` (stereo not drawn) [Compound 89], the pIC50 against IDH1 R132H was 5.30 to 6.00; at IDH1 R132C, 6.00 to 6.52.

For `CCc1cccc(CC)c1-n1c(CC(C)C)c(C(=O)N2CCNC(=O)C2)cc(-c2nc(-c3ccc(Cl)cc3)cs2)c1=O` [Compound 91], the pIC50 against IDH1 R132H and at IDH1 R132C was greater than 6.52 each time.

Consider `CC1(C)CC(=O)c2cc(-c3nc(-c4ccc(Cl)cc4)cs3)c(=O)n(-c3cc(C(F)(F)F)ccc3N3CCOCC3)c2C1` [Compound 92], for which the pIC50 on IDH1 R132H and against IDH1 R132C was 5.30 to 6.00 throughout.

In the case of `COc1ccc(OC)c(-n2c3c(cc(C(=O)NCc4ccc(Cl)cc4)c2=O)C(=O)CC(C)(C)C3)c1` [Compound 93], the pIC50 against IDH1 R132H and on IDH1 R132C was 4.70 to 5.30 in each case.

`CCc1cccc(CC)c1-n1c(CC(C)C)c(C(=O)N2CCC(CO)CC2)cc(-c2nc(-c3ccc(Cl)cc3)cs2)c1=O` [Compound 94]: the figures for the pIC50 against IDH1 R132H and at IDH1 R132C were 5.30 to 6.00 and greater than 6.52, respectively.

As to `COc1cc(N)ccc1-n1c2c(cc(-c3nc(-c4ccc(Cl)cc4)cs3)c1=O)C(=O)CC(C)(C)C2` [Compound 95], the negative logarithm of the IC50 (pIC50) on IDH1 R132H and against IDH1 R132C was 5.30 to 6.00 in each case.

Take `COc1ccc(OC)c(-n2c(=O)c(-c3nc(-c4ccc(Cl)cc4)cs3)cc3c(OC)nccc32)c1` [Compound 97]: the pIC50 at IDH1 R132H is 4.70 to 5.30; against IDH1 R132C it was 5.30 to 6.00.

With `CCc1cccc(CC)c1-n1c(C(C)C)c(C(=O)O)cc(-c2nc(-c3ccc(Cl)cc3)cs2)c1=O` [Compound 98], the pIC50 is 5.30 to 6.00 against IDH1 R132H and 4.70 to 5.30 on IDH1 R132C.

In the case of `CCc1cccc(CC)c1-n1c(C)c(C(=O)NC2CCNC2)cc(-c2nc(-c3ccc(Cl)cc3)cs2)c1=O` (stereo not drawn) [Compound 99], the results for the negative-log IC50 (pIC50) on IDH1 R132H and at IDH1 R132C were 5.30 to 6.00 and 6.00 to 6.52, respectively.

For the molecule `CCc1cccc(CC)c1-n1c(CO)c(C(=O)NC)cc(-c2nc(-c3ccc(Cl)cc3)cs2)c1=O` [Compound 100], the negative logarithm of the IC50 (pIC50) on IDH1 R132H and against IDH1 R132C was 5.30 to 6.00 throughout.

As to `CCc1cccc(CC)c1-n1c(C(C)C)c(C(=O)NC[C@@H](C)O)cc(-c2nc(-c3ccc(Cl)cc3)cs2)c1=O` [Compound 101], the pIC50 on IDH1 R132H was 5.30 to 6.00; against IDH1 R132C it was 6.00 to 6.52.

As to `CCc1cccc(CC)c1-n1c(CC(C)C)c(C(=O)N2CCN[C@@H](C(=O)O)C2)cc(-c2nc(-c3ccc(Cl)cc3)cs2)c1=O` [Compound 102], the pIC50 at IDH1 R132H was 6.00 to 6.52; against IDH1 R132C it was greater than 6.52.
